Measurements taken from US5998173A, “Process for producing N-acetyl-D-glucosamine” (The University of Bristish Columbia, priority 1996, dated 1999).

Legend:
[1] = system: Serratia marcescens QM B1466 chitinases (total chitinase activity, EC 3.2.1.14) in culture supernatant; assay: Chitinase activity assay with pNP-(NAG)2 in the presence of increasing N-acetyl-D-glucosamine (end-product inhibition); assay type: biochemical; conditions: 40-mM NAG in the assay media, p-nitrophenyl substrate analog, 10 min
Method: (§1) FIG. 15a illustrates assays of chitinase (.box-solid.) and chitobiase (.diamond-solid.) in the presence of increasing amounts of N-acetyl-D-glucosamine (NAG). The activity values are expressed as percentage of the initial uninhibited values ([NAG]=0).
Chitinase activity was also determined by using the analog p-nitrophenyl-β-D-N,N'-diacetylchitobiose (pNP-(NAG)2) (Sigma). The assay was performed in triplicate using ELISA plates and contained 50 μL of 100 mM KH2 PO4 buffer containing 1-mM CaCl2 at pH 6.0, 50 μL of pNP(NAG)2 dissolved in nanopure water (400 μg/ml) and 20 μL of enzyme diluted in the same buffer. After 10 minutes of incubation samples were read at 405 nm using an ELISA plate reader. Blanks were used to discount any absorption due to the enzyme or pNP-(NAG)2 alone. The μmoles of p-nitrophenol released by the samples was calculated using a standard curve. Units of enzymatic activity were determined as the number of μmoles of p-nitrophenol released per minute under the assay conditions.
End-product inhibition was tested using p-nitrophenyl substrate-analogs to assay chitinase and chitobiase activities in the presence of increasing concentrations of N-acetyl-D-glucosamine (NAG). The results shown in FIG. 15a indicate that both activities in culture supernatant are inhibited by the end product (NAG). […]

[2] = target: T1, Serratia marcescens QM B1466 chitobiase (EC 3.2.1.29) in culture supernatant (Serratia marcescens, UniProt Q54468); assay: Chitobiase activity assay with pNP-NAG in the presence of N-acetyl-D-glucosamine (end-product inhibition, Eadie-Hofstee analysis); assay type: biochemical
T1 construct: assaying chitobiase activity in S. marcescens culture supernatant over a wide range of substrate concentrations; endogenous in cells; host or cells: Serratia marcescens QM B1466, grown on chitin; enzyme in culture supernatant, not purified
T1 sequence (Q54468 28-885): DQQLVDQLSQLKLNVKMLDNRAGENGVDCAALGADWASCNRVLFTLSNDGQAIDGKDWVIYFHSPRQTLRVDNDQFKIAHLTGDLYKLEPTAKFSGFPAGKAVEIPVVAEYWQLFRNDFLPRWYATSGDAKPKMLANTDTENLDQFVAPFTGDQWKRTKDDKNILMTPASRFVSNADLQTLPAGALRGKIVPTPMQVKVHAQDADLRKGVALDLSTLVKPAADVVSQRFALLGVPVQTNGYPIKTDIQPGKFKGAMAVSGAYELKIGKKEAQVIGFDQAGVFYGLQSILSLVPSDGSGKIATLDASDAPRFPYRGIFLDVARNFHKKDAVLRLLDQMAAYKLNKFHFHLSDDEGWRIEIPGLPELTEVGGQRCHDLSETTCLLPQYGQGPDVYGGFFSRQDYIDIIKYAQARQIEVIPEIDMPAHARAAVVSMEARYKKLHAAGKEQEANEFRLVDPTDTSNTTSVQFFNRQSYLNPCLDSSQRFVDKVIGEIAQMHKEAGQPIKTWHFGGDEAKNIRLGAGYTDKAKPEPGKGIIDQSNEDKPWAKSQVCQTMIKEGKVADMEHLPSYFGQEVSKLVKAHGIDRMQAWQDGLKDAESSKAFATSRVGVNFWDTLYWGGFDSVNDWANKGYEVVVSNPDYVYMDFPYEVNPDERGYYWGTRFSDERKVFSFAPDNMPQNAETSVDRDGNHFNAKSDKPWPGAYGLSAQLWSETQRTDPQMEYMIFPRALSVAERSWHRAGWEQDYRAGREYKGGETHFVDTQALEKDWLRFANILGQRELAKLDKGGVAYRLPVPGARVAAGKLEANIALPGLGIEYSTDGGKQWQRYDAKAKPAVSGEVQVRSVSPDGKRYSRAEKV
Text: as §1
FIG. 15b illustrates assays of chitobiase from S. marcescens crude extracts using a range of p-nitrophenyl N-acetyl-β-D-glucosaminide concentrations with or without the addition of a fixed amount of N-acetyl-D-glucosamine (NAG). (.box-solid.) 0.00 mM NAG; (.circle-solid.) 0.21 mM NAG; (Δ) 0.42 mM NAG; (.gradient.) 0.83 mM NAG; and (.diamond-solid.) 1.67 mM NAG.
Chitobiase activity was determined by measuring the amount of p-nitrophenolreleased when an aliquot of enzyme solution (culture supernatant) was incubated with an aqueous solution of p-nitrophenyl-N-acetyl-β-D-glucosamine (pNP-NAG) (Sigma). The buffer used in this assay was 85-mM Tris(hydroxymethylaminomethane)-malate, pH 7.0. […] The liberated p-nitrophenol was spectrophotometrically measured at 405 nm in an ELISA plate reader. […]
The nature of chitobiase inhibition by N-acetyl-D-glucosamine was determined by assaying chitobiase activity in S. marcescens culture supernatant over a wide range of substrate concentrations, with and without the addition of fixed amounts of N-acetyl-D-glucosamine. […]

## CC(=O)N[C@H]1C(O)O[C@H](CO)[C@@H](O)[C@@H]1O (stereo partly drawn) [N-acetyl-D-glucosamine, 2-acetamido-2-deoxy-D-glucose]
[1]
  total chitinase activity lost: 30%
[2]; 10 min, pH 7, 40-mM NAG in the assay media, p-nitrophenyl substrate analog, culture supernatant, read-out: chitobiase activity drop
  inhibition at 40000 µM: 70%
[2]; noncompetitive inhibition, substrate p-nitrophenyl N-acetyl-β-D-glucosaminide, 0-1.67 mM NAG, calculated from Eadie-Hofstee analysis, read-out: inhibition constant Ki
  Ki: 1000 µM
